Measured values reported in ChEMBL document CHEMBL5233240, “hERG toxicity assessment: Useful guidelines for drug design” (Eur J Med Chem, 2020).

Biological target: Voltage-gated inwardly rectifying potassium channel KCNH2 (Homo sapiens, UniProt Q12809)
Assay: Inhibition of human ERG
Format: toxicity

Voltage-gated inwardly rectifying potassium channel KCNH2, sequence (Q12809 whole entry): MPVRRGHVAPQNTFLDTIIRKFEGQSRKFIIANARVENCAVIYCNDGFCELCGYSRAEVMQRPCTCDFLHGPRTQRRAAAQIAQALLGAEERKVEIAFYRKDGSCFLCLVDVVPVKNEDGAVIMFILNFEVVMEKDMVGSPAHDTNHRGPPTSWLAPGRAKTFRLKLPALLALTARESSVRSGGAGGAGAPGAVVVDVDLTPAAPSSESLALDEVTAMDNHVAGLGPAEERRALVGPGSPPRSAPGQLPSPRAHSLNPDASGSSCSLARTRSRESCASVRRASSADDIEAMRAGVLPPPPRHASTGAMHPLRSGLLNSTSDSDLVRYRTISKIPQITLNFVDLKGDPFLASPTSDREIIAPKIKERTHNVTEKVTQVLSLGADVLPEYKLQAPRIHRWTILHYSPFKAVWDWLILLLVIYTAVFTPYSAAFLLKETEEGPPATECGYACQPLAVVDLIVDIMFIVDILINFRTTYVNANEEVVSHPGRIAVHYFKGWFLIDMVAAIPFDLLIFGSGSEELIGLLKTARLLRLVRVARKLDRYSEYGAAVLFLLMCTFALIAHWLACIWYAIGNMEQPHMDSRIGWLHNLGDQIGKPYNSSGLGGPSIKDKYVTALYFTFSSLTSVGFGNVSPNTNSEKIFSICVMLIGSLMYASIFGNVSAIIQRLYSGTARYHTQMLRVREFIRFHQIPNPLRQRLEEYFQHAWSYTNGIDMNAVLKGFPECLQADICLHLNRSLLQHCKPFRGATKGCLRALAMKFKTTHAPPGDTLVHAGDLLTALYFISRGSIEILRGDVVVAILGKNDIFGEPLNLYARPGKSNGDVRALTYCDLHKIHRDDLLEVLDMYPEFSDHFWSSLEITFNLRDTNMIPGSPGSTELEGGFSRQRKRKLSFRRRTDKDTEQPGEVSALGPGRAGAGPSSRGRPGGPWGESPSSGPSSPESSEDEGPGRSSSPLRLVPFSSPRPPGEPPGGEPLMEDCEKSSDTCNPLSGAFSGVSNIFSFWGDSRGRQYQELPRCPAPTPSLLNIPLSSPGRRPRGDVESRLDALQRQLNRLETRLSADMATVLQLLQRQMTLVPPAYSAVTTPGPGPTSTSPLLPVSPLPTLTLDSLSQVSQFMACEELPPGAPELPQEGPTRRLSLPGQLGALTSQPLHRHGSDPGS

| Compound | IC50 [µM] |
| --- | --- |
| N#Cc1ccc2cc1Oc1ccc3c(c1)[C@@H](CCC3)N1CC[C@H](C1)NCc1cncn1-2 | 7 |
| N#Cc1ccc(Cn2cncc2CC[C@H]2CCN(Cc3cccc(Cl)c3)C2=O)cc1 | 0.44 |
